≈ marks a conversion by molar mass, not a printed value.
What was measured:
Cryptococcus neoformans = experiment: Fungal capsule and cell size (Chinese ink, light microscopy); type: cell-based; settings: compared to untreated cells; ATCC 34872 and 1172; 48 h; p < 0.05
Experimental: For all assays, fungal cells were incubated in RPMI-MOPS (except when specified) supplemented with BTU-01 and AmB alone at MIC and MFC values or combined at the synergistic MIC values. Untreated fungal cells were considered as control.
Cryptococcus neoformans was cultivated in a minimal capsular induction medium (15 mM glucose, 10 mM MgSO4, 29.4 mM KH2PO4, 13 mM glycine and 3 μM thiamine-HCl, pH 5.5) at 37°C for 7 days ([Frases et al., 2009]). Afterward, a standard fungal suspension was prepared as described above, and the cells (1.0 × 10^7 CFU/mL) were treated with the compounds at 37°C for 48 h. Cells were collected by centrifugation (10,000 × g, 1 min), suspended in an equal volume of Chinese ink on glass slides, spread the smear evenly with coverslips, and observed with a Zeiss Axio Imager 2 microscope (Zeiss, Germany). The capsule size of 100 randomly chosen cells was measured by using the software ImageJ 1.49v.^1 The capsule thickness was determined according to [Spadari et al. (2019)], which consisted of the difference between the diameter of the cell, including the capsule, with the diameter of the body cell within the cell wall.

[1] = system: C neoformans mature biofilms; parameters: method as in Martinez and Casadevall, 2006; settings: strains ATCC 24067, ATCC B3501 and H99; ref Martinez and Casadevall, 2006; cited from earlier work
Hemolysis assay = type: cell-based, human; settings: human, human erythrocyte suspension (3%); range over tested concentrations; compound alone; 3 h at 37°C; read-out: percentage of hemolysis
Experimental: The cytotoxicity of BTU-01 (1.95–1000.0 μg/mL) alone and combined with AmB (0.015–16.0 μg/mL) was evaluated on human erythrocytes. Blood from a healthy donor was collected according to the Declaration of Helsinki principles, defibrinated and an erythrocytes suspension (3%) was prepared in 5% glycosylated saline. A total of 100 μL of the erythrocytes suspension was incubated for 3 h at 37°C in wells of U-bottom 96-well polystyrene plates containing different concentrations of the compounds. Wells without the compounds and with 1% Triton X-100 were used as negative and positive hemolysis controls, respectively. The OD of the supernatant was determined at 550 nm with a microtiter plate reader (Synergy HT, BioTek, USA). The percentage of hemolysis was calculated by comparison with the positive control ([Izumi et al., 2012]).
(§1) The concentration of BTU-01 capable of causing 90% of hemolysis/cytotoxicity was used to calculate the selectivity index (SI) using the following equation: SI = CC90/MIC.

cryptococcal urease = biological target: T1, cryptococcal urease (Cryptococcus neoformans, UniProt O13465); experiment: Urease activity inhibition test (indophenol method, crude protein extract); type: biochemical
T1 construct: 100 μL of crude protein extract; endogenous in cells; host or cells: Cryptococcus neoformans ATCC 34872, crude lysate (glass-bead lysis, supernatant)
T1 sequence (O13465 whole entry): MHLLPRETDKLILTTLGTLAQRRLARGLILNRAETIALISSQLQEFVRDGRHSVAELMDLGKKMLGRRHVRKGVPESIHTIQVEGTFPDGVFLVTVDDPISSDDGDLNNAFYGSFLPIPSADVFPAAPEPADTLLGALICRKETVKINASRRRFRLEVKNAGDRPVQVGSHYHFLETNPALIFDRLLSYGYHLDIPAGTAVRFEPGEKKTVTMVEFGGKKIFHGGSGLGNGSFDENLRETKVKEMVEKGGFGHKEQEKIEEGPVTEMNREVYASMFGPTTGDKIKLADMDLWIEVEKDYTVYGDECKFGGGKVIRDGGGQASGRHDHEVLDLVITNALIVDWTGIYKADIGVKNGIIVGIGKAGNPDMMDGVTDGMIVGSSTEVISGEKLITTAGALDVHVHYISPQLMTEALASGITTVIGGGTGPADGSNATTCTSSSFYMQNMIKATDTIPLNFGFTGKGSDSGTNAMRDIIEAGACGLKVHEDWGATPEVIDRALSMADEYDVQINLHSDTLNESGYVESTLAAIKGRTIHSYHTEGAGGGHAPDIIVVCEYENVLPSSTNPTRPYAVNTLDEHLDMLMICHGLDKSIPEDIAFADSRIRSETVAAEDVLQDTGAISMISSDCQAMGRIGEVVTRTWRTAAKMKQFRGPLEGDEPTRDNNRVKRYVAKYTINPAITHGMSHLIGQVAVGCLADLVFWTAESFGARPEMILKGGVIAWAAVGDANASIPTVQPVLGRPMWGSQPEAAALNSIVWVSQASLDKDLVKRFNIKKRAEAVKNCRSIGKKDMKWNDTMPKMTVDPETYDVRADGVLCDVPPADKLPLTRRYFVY
Experimental: Five colonies of C. neoformans were suspended in 100 μL SD broth and inoculated onto SD agar using a Drigalski spreader, and the culture was incubated at 37°C for 48 h. Afterward, all fungal growth was gently scraped and transferred to conical flasks containing 300 mL of SD broth and incubated with shaking (150 rpm) at 37°C for further 48 h. Cells were centrifuged (6,000 × g, 10 min) and washed three times with distilled water. The protein extraction was performed according to [Moller et al. (2016)] with modifications. Briefly, fungal cells were resuspended in 10 mL of chilled lysis buffer consisting of 100 μM Nα-tosyl-L-lysine chloromethyl ketone hydrochloride (TLCK), 1 mM EDTA, 10% glycerol and 0.15 M phosphate-buffered saline (PBS), pH 8.0. […] Then, the cell debris was removed by centrifugation (6,000 × g, 15 min, 4°C), and the protein content of the resulting supernatant was quantified using the […].
The inhibition of urease activity was evaluated by the indophenol method ([Weatherburn, 1967]). […] The reaction mixtures were incubated for further 10 min at 45°C, and the optical density (OD) was measured at 630 nm. Urease inhibition percentage (I%) was calculated according to the equation: I% = 100–(ODBTU–01/ODcontrol) × 100. […]

[2] = Cytotoxicity, MTT reduction assay; type: cell-based, human; settings: human, HEp-2 CCL-23 cells, 24 h, MTT
Experimental: (§2) The effect of BTU-01 was analyzed on mammalian epithelial cell lines [HEp-2 CCL-23™ (ATCC), LLC-MK2, VERO CCL81 and HeLa (Merck, Brazil)], and the cytotoxicity was evaluated as described by [Longhi et al. (2016)] with modifications. Briefly, cells were cultured in Dulbecco’s Modified Eagle’s medium (DMEM) supplemented with 10% fetal bovine serum (Invitrogen, Brazil), 2 mM L-glutamine, 100 IU/mL penicillin, 100 μg/mL streptomycin, 1% tylosin in flat-bottomed 96-well microtiter plates, in 5% CO2 at 37°C for 48 h. Then, the medium was carefully removed and fresh medium containing twofold serially diluted BTU-01 (0.095–500.0 μg/mL) was added. The cells were incubated for further 24 h under the same conditions. Cell viability was analyzed by the MTT reduction assay according to the manufacturer’s recommendation. The concentration of the compound needed to inhibit the viable cells up to 50 and 90% by regression analysis corresponds to the 50% (CC50) and 90% (CC90) cytotoxic concentrations, respectively.
as §1

HEp-2 CCL-23 = experiment: Cytotoxicity, MTT reduction assay; type: cell-based, human; settings: SI = CC90/MIC, MIC 62.5 μg/mL
Experimental: as §2, §1

[3] = Cytotoxicity, MTT reduction assay, ranges over all cell lines; type: cell-based; settings: different cell lines
Experimental: as §2, §1

Row | Structure (SMILES) | capsule size (Cryptococcus neoformans) | cell size (Cryptococcus neoformans) | concentration inhibiting metabolic activity of mature biofilms [1] | hemolysis at 3 h (Hemolysis assay) [%] | IC50 (cryptococcal urease) [µM] | CC50 at 24 h [2] [µg/mL] | CC90 at 24 h [2] [µg/mL] | SI (HEp-2 CCL-23) | CC50 at 24 h ([3]; read-out: CC50, range over cell lines) [µg/mL] | CC90 at 24 h ([3]; read-out: CC90, range over cell lines) [µg/mL]
1 | C[C@@H]1[C@H](O)[C@@H](C)/C=C/C=C/C=C/C=C/C=C/C=C/C=C/[C@H](O[C@@H]2O[C@H](C)[C@@H](O)[C@H](N)[C@@H]2O)C[C@@H]2O[C@](O)(C[C@@H](O)C[C@@H](O)[C@H](O)CC[C@@H](O)C[C@@H](O)CC(=O)O[C@H]1C)C[C@H](O)[C@H]2C(=O)O [Amphotericin B, amphotericin B] | significant reduction | significant reduction | higher than 2.0 μg/mL | 0.52 to 1.34 |  |  |  |  |  | 
2 | CCCCNC(=S)NC(=O)c1ccccc1 [BTU-01, N-(butylcarbamothioyl) benzamide] | significant reduction | significant reduction |  | 0 to 3.18 | 226 | 104 (≈ 441 µM) | 245 (≈ 1040 µM) | 3.9 | 61 to 121 (≈ 258 to 513 µM) | 143 to 244 (≈ 603 to 1030 µM)

Reference: publication PMC10028264, “Synergistic antifungal interaction of N-(butylcarbamothioyl) benzamide and amphotericin B against Cryptococcus neoformans” (Frontiers in Microbiology, 2023)
